Measured values taken from patent publication US7145037B2, “Adamantane derivatives with neuroprotective, antidepressant and anti-ischaemic activities, and process for preparing them” (Rotta Research Laboraturium S.p.A., priority 2003, dated 2006).
Structures can show the parent of a compound that is named as a salt. Marks after values point to notes of the source that are not given here.

What was measured:
mouse [1] = experiment: Swimming test (Porsolt) in the mouse; format: in vivo
Procedure: Process: The procedure is similar to that described by Porsolt et al. (Arch. Int. Pharmacodyn. 229, p. 327–336 (1977).
Naïve (unconditioned) mice are subjected to forced swimming for 15 minutes in a glass cylinder containing 20 cm of water at a temperature of 25° C. The period of immobility from the third to the sixth minute (inclusive) and the time to reach total immobility from the sixth to the fifteenth minute were measured. Total immobility is defined as the latent time required in order for the animal to remain immobile for at least 30 seconds. The compounds were administered orally 60 minutes before the test.

rat hippocampus slices = experiment: Basal release of [3H]noradrenalin from rat hippocampus slices in perfusion; format: cell-based
Procedure: (§1) The animals were sacrificed and the brains rapidly removed from the brain case and immediately transferred at 4° C. into artificial cerebrospinal fluid (aCSF) aerated with a gas mixture composed of 95% oxygen and 5% carbon dioxide. The brains were then sectioned at a temperature of 4° C. and the encephalic areas of interest (hippocampus and corpora striata) removed and immersed in the solution mentioned above.
(§2) Cerebral slices 400 μm thick were then prepared using a McIllwain “chopper”. The hippocampus slices were incubated with 0.08 μM of [^3H] noradrenalin and the striatum slices with 0.01 μM of [^3H] dopamine and/or with 0.09 μM of [^3H] choline at a temperature of 37° C. for 20 minutes. The slices labelled with [^3H] noradrenalin were incubated in the presence of 0.1 μM 6-nitroquipazine and 0.1 μM GBR 12909, which are selective inhibitors of the uptake of serotonin and dopamine, respectively, in order to prevent possible false labelling of serotoninergic and dopaminergic synaptic endings.
(§3) For the same reasons, the slices labelled with [^3H] dopamine were incubated in the presence of 0.1 μM 6-nitroquipazine and 0.1 μM nisoxetine, which are selective inhibitors of serotonin and noradrenalin uptake. […]
(§4) At the end of the experiment, the collected samples and the perfused slices (dissolved in toluene) were subjected to counting of the radioactivity present in each fraction and/or slice using a scintillator for liquid samples. The fractional release of tritiated neurotransmitters was calculated as the amount of radioactivity present in each fraction divided by the total radioactivity present in the slice at the moment at which it was collected. The ratios between the fractional release at a given moment of the perfusion and the fractional release in the first collected fraction were thus calculated for each slice. The effects of the compounds were expressed as a percentage of increase of the release of the neurotransmitters studied relative to the control slices perfused in the absence of drugs (Table 2).

[2] = tested on: rat parieto-occipital cortex slices; experiment: Release of [3H]D-aspartate evoked by 30 mM KCl under hypoglycaemic conditions in rat parieto-occipital slices; format: cell-based; conditions: read-out: IC50 for antagonizing the hypoglycaemia-induced increase in the release of [3H]D-aspartate
Procedure: This in vitro experimental model was designed to mimic a condition of […] and is a modification of the model reported by Zablocka B. and Domanska-Janik K., [NeuroReport 6, 85–88 (1994)].
Rat parieto-occipital cortex is removed and sectioned into 400 μm coronal slices. The cortical slices are incubated at 37° C. for 30 minutes with [^3H]D-aspartate and then, after washing for 45 minutes, stimulated for 5 minutes with a hypertonic potassium solution (30 mM). Once the basal conditions have been restored, the slices are perfused with a glucose-free medium for 20 minutes. The test compounds are at this point added to a standard medium containing glucose and perfused until the end of the experiment. 10 minutes from the end of the hypoglycaemic period, a further hypertonic potassium stimulation depolarizes the neuronal membrane, causing an approximately 75% increase in the release of [^3H]D-aspartate evoked under control conditions.

NMDA receptor [3] = biological target: T1, NMDA receptor; experiment: Binding of [3H]MK-801 to rat cortical synaptosomial membranes; conditions: H3-MK-801, 45 min at 23° C., read-out: IC50, concentration displacing 50% of the ligand (MK-801) from the receptor
T1 construct: IC50, concentration displacing 50% of the ligand (MK-801) from the receptor; other: rat cortical membranes, H3-MK-801

mouse [4] = experiment: "Tail pinching" test in the mouse; format: in vivo; conditions: for Immobility time: 5 minutes; for % effect vs control: immobility time; for ED50: oral, calculated ED50, read-out: ED50 (reduction of immobility time)
Procedure: Process: The procedure is similar to that described by Steru et al. [Psychopharmacol. 85, p. 367-(1985)]. The animals are suspended by the tail 75 cm above the bench surface. The duration of immobility is measured over a period of 5 minutes: the animals are considered as being immobile only when they hang passively and completely motionless. The compounds were administered orally 30 minutes before the test.

rat striatum slices [5] = experiment: Basal release of [3H]dopamine from rat striatum slices in perfusion; format: cell-based; conditions: inactive = at the concentration in parentheses
Procedure: as §1, §2, §3, §4

rat striatum slices [6] = experiment: Basal release of [3H]acetylcholine from rat striatum slices in perfusion; format: cell-based; conditions: inactive = at the concentration in parentheses
Procedure: as §1, §2, §3, §4

NMDA receptor [7] = experiment: Release of [3H]noradrenalin stimulated by NMDA in rat hippocampus slices; format: cell-based; conditions: aCSF lacking Mg2+, 100 μM NMDA, read-out: IC50 for antagonizing the effect of 100 μM NMDA on [3H]noradrenalin release
Procedure: The preparation of the slices is analogous to that described previously. The slices were perfused in the presence of [^3H] noradrenalin with an aCSF lacking in Mg^2+ ions. After perfusion for 45 minutes to equilibrate the system, 7 fractions of 5 minutes each were collected. The test compounds were added to the perfusion liquid 10 minutes before starting the collection of the fractions, while 100 μM NMDA was added only to fraction 4, from the fifteenth minute after the start of collection.
At the end of the experiment, the radioactivity present was counted as described previously. For each sample, the percentage ratio between the fractional release in fraction 4 in the presence of NMDA and the fractional release in the first collected fraction was determined. The activity of the test drugs was expressed as a mean percentage value of the number of experiments performed relative to the percentage increase in the release of [^3H] noradrenalin into the NMDA-stimulated control chambers in the absence of antagonists.

NO-synthetase (NOS) = NO-synthetase (NOS) (Oryctolagus cuniculus, UniProt G1SGE1); experiment: Inhibition of NO (nitrite) formation in rabbit articular chondrocytes stimulated with IL-1β; format: cell-based; conditions: for IC50: nitrite formation, IL-1β 1 ng/ml, 48 hours, 95% confidence limits in parentheses, read-out: Rabbit articular chondrocytes % inhibition (IC50 × 10^−6M)
Procedure: a) The inhibitory activity on the formation of NO, measured as NO2^− (nitrite), was studied in vitro on culture media of rabbit articular chondrocytes stimulated with the cytokine IL-1β (1 ng/ml) for 48 hours. For the preparation of the chondrocytes, the method described by Berenbaum et al. […] The cells were maintained under these conditions to the point of confluency (about 15 days), the medium being changed every 3 days. […] The stimulation lasted for 48 hours at 37° C. (incubation under air-7% CO2). Next, an assay of the nitrites was performed on the cell supernatant according to the method described by Green et al. [Anal. Biochem. 126, 131–138 (1982)].

[8] = 3 mg/kg orally 60 minutes before the test
[9] = 10 mg/kg orally 60 minutes before the test
[10] = 30 mg/kg orally 60 minutes before the test
[11] = 1 mg/kg orally 30 minutes before the test
[12] = 10 mg/kg orally 30 minutes before the test
[13] = 0.1 mg/kg orally 60 minutes before the test
[14] = 1 mg/kg orally 60 minutes before the test

Chain of NO-synthetase (NOS) (G1SGE1 entry or part of it): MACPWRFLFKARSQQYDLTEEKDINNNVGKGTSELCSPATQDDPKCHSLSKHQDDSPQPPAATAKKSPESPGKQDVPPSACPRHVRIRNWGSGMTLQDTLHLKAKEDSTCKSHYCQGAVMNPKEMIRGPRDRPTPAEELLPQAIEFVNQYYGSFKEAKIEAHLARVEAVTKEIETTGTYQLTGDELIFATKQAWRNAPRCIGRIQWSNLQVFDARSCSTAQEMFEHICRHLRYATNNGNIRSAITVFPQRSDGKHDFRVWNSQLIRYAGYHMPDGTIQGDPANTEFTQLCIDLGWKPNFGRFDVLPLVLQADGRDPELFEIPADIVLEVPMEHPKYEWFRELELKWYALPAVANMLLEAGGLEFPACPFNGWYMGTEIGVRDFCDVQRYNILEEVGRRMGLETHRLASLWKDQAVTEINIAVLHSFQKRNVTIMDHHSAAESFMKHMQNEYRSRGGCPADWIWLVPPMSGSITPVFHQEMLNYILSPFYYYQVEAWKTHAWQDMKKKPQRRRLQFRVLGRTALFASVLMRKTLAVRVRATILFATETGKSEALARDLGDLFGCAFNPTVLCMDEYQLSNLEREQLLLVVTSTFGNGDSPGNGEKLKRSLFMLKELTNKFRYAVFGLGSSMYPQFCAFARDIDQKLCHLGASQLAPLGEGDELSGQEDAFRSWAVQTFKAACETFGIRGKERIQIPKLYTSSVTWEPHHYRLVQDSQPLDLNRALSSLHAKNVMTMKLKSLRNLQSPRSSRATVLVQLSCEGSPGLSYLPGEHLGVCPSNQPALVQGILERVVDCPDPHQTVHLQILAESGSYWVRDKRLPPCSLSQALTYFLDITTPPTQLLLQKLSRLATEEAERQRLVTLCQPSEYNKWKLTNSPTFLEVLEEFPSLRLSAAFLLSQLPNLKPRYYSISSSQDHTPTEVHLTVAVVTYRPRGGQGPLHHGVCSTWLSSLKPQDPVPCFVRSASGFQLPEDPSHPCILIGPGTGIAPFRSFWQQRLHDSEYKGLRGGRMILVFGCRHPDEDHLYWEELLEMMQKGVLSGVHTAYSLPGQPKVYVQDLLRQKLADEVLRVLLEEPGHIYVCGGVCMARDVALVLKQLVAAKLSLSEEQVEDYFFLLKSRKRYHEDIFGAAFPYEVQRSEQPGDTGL

## CC(=N)NCCC12CC3CC(CC(C3)C1)C2 (as salt: HCl) [Compound 1]
other
  melting point: 243 °C

## N=C(N)NCCC12CC3CC(CC(C3)C1)C2 (as salt: HCl) [Compound 3]
other
  melting point: 246 °C

## CN(C)CCC=C1c2ccccc2CCc2ccccc21 [Amitryptiline, reference compound]
Mouse [1]; [8]
  Immobility in sec. (3–6 mins): 54.9 s
  Latent time vs immobility in sec. (6–15 mins): 477.5 s
Mouse [1]; [9]
  Immobility in sec. (3–6 mins): 56.0 s
  Latent time vs immobility in sec. (6–15 mins): 461.0 s
Mouse [1]; [10]
  Immobility in sec. (3–6 mins): 42.0 s
  Latent time vs immobility in sec. (6–15 mins): 607.8** sec.

## CC(=N)NCCC12CC3CC(C)(CC(C)(C3)C1)C2 [Compound 2, N-[2-(3,5-dimethyl-1-adamantyl)ethyl]-acetamidine]
Rat hippocampus slices
  Basal release of [3H]NE on hippocampus slices: concentration increasing basal release by 100%: 6 µM
[2]
  IC50: 2.5 µM
NMDA receptor [3]
  IC50: ~40 µM
Mouse [4]; 0.3 mg/kg orally 30 minutes before the test
  Immobility time: 56.6 s
Mouse [4]; 0.3 mg/kg orally
  % effect vs control: 25.7%
Mouse [4]; [11]
  Immobility time: 48.0 s
Mouse [4]; 1 mg/kg orally
  % effect vs control: 37.0%
Mouse [4]; 3 mg/kg orally 30 minutes before the test
  Immobility time: 42.6 s
Mouse [4]; 3 mg/kg orally
  % effect vs control: 44.1%
Mouse [4]; [12]
  Immobility time: 35.1 s
Mouse [4]; 10 mg/kg orally
  % effect vs control: 53.9%
Mouse [4]
  ED50: 6 mg/kg
Rat striatum slices [5]
  Basal release of [3H]DA on striatum slices: concentration increasing basal release by 100%: 2 µM
Rat striatum slices [6]
  Basal release of [3H]Ach on striatum slices: concentration increasing basal release by 100%: inactive
NMDA receptor [7]
  IC50: 0.8 µM

## CC12CC3CC(C)(C1)CC(CCNC(=N)N)(C3)C2 [Compound 4, N-[2-(3,5-dimethyl-1-adamantyl)ethyl]guanidine]
Rat hippocampus slices
  Basal release of [3H]NE on hippocampus slices: concentration increasing basal release by 100%: 15 µM
[2]
  IC50: 0.8 µM
NMDA receptor [3]
  IC50: ~40 µM
Mouse [1]; [13]
  Immobility in sec. (3–6 mins): 39.3* sec.
  Latent time vs immobility in sec. (6–15 mins): 353.3 s
Mouse [1]; [14]
  Immobility in sec. (3–6 mins): 39.8* sec.
  Latent time vs immobility in sec. (6–15 mins): 450.8* sec.
Mouse [1]; [9]
  Immobility in sec. (3–6 mins): 42.4* sec.
  Latent time vs immobility in sec. (6–15 mins): 495.8* sec.
Rat striatum slices [5]
  Basal release of [3H]DA on striatum slices: concentration increasing basal release by 100%: 8 µM
Rat striatum slices [6]
  Basal release of [3H]Ach on striatum slices: concentration increasing basal release by 100%: 20 µM
NMDA receptor [7]
  IC50: 0.5 µM

## N=C(NCCC12CC3CC(CC(C3)C1)C2)N[N+](=O)[O-] [Compound 5]
other
  melting point: 260 °C

## CC12CC3CC(C)(C1)CC(CCNC(=N)N[N+](=O)[O-])(C3)C2 [Compound 6, N-[2-(3,5-dimethyl-1-adamantyl)ethyl]-nitroguanidine]
NO-synthetase (NOS)
  IC50: 80.4 µM

## CC12CC3CC(C)(C1)CC(CCNC(=N)C1CC1)(C3)C2 [Compound 7]
other
  melting point: 96 °C

## COC(=O)[C@@H](N)CCCNC(=N)N[N+](=O)[O-] [L-NAME]
NO-synthetase (NOS)
  IC50: 340 µM

## CC12CC3CC(C)(C1)CC(N)(C3)C2 [Memantine, reference compound]
Rat hippocampus slices
  Basal release of [3H]NE on hippocampus slices: concentration increasing basal release by 100%: 130 µM
[2]
  IC50: 7.5 µM
NMDA receptor [3]
  IC50: 80 µM
Mouse [4]; 0.1 mg/kg orally 30 minutes before the test
  Immobility time: 49.9 s
Mouse [4]; 0.1 mg/kg orally
  % effect vs control: 36.8%
Mouse [4]; [11]
  Immobility time: 48.9 s
Mouse [4]; 1 mg/kg orally
  % effect vs control: 38.0%
Mouse [4]; [12]
  Immobility time: 40.1 s
Mouse [4]; 10 mg/kg orally
  % effect vs control: 49.2%
Mouse [4]
  ED50: 24.9 mg/kg
NO-synthetase (NOS); up to the maximum concentration tested (3×10^−4M)
  Inhibition of the production of nitrite: entirely inactive
Rat striatum slices [5]
  Basal release of [3H]DA on striatum slices: concentration increasing basal release by 100%: inactive (30 μM)
Rat striatum slices [6]
  Basal release of [3H]Ach on striatum slices: concentration increasing basal release by 100%: inactive (100 μM)
NMDA receptor [7]
  IC50: 1.6 µM
